The text below walks through data of US6643591B1, “Use of computational and experimental data to model organic compound reactivity in cytochrome P450 mediated reactions and to optimize the design of pharmaceuticals” (University of Pittsburgh, priority 1998, dated 2003).

Each structure is given as a SMILES string.

One data set addresses CYP4B1 (Oryctolagus cuniculus, UniProt P15128). The data set can be described thus: in vitro.
The subject of another data set is CYP. The data set can be described thus: Experimental product ratios for aromatic oxidation. The note with it: Arom/benz. From the text:
These equations may be solved with the data in Table 4, which provides experimental data for aromatic oxidation reactions with a number of substrates.
Experimental metabolite ratios may also be used to parameterize the aromatic oxidation reaction in a theoretical model for CYP reactions. As with hydrogen atom abstraction discussed in the previous Examples, experimental ratios of aromatic oxidation to an alternate position may be determined using various CYP enzymes. These substrates were chosen based on their small size, the presence of an alternate position for metabolism, and their hydrophobicity.
In order for the substrates to be useful, the average of the rotation rates in the active sites should be rapid. […] Several human expressed CYP enzymes were used in these studies, including CYP1A1, 1A2, 2A6, 2B6, 2C8, 2C9, 2D6, 2E1, 3A4, and 3A5. The use of multiple enzymes insures that a reasonable average of any orientation preferences within the active site (see FIG. 1).

The next data set has as its system CYP1A2, CYP2B1, CYP2E1. The data set can be described thus: in vitro. The note with it: pH 7.4, Regioselectivity BzH:Arom, range, isoforms 1A2, 2B1 and 2E1.
In another data set the test system is CYP2B6, CYP2C9, CYP4B1. Nature of the data set: in vitro. The note with it: pH 7.4, Regioselectivity BzH:Arom, range, isoforms 2B6, 2C9 and 4B1.
In the next data set the test system is multiple CYP isoforms. The data set can be described thus: in vitro. The note with it: pH 7.4, Regioselectivity BzH:ODAlk, range, range over the isoforms.
The target of another data set is T1, CYP2B6 (Homo sapiens, UniProt P20813).
T1 sequence (P20813 1-491): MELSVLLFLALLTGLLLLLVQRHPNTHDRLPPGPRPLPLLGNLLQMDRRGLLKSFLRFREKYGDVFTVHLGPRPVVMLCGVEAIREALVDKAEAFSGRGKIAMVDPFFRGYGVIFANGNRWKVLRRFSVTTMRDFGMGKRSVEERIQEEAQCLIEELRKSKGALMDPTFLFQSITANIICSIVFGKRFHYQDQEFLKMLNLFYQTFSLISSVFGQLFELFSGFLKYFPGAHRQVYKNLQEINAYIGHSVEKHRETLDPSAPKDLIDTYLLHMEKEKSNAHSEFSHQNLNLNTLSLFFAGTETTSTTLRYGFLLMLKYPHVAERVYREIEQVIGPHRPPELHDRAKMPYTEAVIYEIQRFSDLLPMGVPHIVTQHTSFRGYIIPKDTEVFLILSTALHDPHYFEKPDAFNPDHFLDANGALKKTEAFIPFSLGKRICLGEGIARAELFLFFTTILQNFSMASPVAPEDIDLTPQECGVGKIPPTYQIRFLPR
Nature of the data set: in vitro.

The next data set concerns the target T2, CYP1A1 (Homo sapiens, UniProt P04798).
T2 sequence (P04798 1-512): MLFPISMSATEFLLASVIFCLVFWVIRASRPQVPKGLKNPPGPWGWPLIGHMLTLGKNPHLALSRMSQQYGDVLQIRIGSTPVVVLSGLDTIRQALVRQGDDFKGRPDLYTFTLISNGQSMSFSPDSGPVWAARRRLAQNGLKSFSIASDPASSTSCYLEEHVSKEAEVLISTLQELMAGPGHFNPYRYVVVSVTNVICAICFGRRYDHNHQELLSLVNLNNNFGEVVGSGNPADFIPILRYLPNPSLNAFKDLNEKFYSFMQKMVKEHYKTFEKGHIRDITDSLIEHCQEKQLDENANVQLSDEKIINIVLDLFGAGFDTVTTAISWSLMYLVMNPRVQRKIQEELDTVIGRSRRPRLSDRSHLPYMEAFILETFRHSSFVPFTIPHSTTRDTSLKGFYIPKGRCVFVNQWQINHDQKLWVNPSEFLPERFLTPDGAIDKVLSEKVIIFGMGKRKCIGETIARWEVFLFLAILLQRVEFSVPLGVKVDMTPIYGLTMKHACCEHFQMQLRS

Another data set deals with T3, CYP2C8 (Homo sapiens, UniProt P10632).
T3 sequence (P10632 1-490): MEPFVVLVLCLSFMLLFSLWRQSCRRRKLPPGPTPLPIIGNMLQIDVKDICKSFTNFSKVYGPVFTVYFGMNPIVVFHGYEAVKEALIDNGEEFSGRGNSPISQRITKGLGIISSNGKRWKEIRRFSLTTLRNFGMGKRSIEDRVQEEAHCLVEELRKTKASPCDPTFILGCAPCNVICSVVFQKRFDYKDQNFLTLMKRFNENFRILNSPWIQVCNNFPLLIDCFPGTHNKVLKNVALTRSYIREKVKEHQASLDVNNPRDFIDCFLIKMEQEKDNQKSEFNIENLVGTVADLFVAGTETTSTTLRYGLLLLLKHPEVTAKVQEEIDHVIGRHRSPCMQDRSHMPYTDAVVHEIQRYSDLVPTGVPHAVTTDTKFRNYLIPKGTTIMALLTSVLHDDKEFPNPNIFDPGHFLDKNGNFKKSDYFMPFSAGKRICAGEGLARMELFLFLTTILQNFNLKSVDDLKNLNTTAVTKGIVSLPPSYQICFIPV
The data set can be described thus: Regioselectivity and inter-/intramolecular KIE for 4-methylanisole (Table 15). In kind it is in vitro ADME.

In a further data set the target is T4, P450cam (Pseudomonas putida, UniProt P00183).
T4 construct: made in house
T4 sequence (P00183 2-415): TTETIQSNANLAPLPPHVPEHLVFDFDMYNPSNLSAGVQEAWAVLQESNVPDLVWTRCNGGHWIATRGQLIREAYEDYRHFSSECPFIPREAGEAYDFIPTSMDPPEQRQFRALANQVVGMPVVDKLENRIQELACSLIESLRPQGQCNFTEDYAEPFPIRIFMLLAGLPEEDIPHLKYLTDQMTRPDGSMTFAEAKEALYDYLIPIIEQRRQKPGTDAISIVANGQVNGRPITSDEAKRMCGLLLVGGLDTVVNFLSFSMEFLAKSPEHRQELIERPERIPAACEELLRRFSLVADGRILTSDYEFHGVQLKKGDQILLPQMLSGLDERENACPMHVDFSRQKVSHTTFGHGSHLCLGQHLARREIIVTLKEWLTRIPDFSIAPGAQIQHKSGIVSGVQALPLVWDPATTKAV
The data set can be described thus: Intramolecular isotope effects with purified P450cam. The note with it: benzylic hydroxylation, -CH2D (d1) substrate. Format: in vitro ADME, bacterial. How it is done:
For the intramolecular isotope effect experiments herein, a substrate is chosen that contains at least two symmetrical sites, with at least one site, but not all, isotopically labeled. A single concentration of substrate is incubated with enzyme, and the ratio of labeled to unlabeled compound in the isotopic mixture of products (or the corresponding rates of formation of products) are used to calculate a KIE.
Construction of expression plasmids for P450cam, Pd, and PdR as well as protein expression and purification have been described previously (Shimoji et al. (1998) Biochemistry 37, 8848-52).
Enzyme incubations with monodeuterated toluenes and p-xylene-α-^2H1-α′-^2H1 were performed in triplicate at a single substrate concentration of 0.25 mM. […] The kinetic parameters for metabolism of the substituted toluenes were determined by GC-MS analysis of the M-(dimethylsilyl) derivative of the product benzyl alcohols (see below).

In a further data set the target is CYP2E1 (Homo sapiens, UniProt P05181). Nature of the data set: Regioselectivity and inter-/intramolecular KIE for 4-methylanisole (Table 15). In kind it is in vitro ADME.
Sequence of CYP2E1 (P05181 whole entry): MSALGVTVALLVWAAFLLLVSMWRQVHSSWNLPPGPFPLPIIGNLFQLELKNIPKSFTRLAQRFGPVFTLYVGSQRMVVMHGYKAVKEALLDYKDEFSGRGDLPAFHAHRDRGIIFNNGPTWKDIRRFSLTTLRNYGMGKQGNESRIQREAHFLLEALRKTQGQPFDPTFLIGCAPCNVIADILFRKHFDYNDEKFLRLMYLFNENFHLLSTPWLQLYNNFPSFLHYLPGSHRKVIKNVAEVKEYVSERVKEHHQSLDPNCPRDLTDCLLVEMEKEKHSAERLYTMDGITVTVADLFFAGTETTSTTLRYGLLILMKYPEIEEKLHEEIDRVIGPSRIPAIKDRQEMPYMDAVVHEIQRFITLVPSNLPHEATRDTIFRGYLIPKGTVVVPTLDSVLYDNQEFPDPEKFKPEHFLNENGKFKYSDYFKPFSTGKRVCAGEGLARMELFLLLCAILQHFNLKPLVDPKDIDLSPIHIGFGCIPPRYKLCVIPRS
The mark [1] stands for this setting: pH 7.4, Regioselectivity BzH:Arom.
[2] abbreviates: pH 7.4, Regioselectivity BzH:ODAlk.

Sequence of CYP4B1 (P15128 whole entry): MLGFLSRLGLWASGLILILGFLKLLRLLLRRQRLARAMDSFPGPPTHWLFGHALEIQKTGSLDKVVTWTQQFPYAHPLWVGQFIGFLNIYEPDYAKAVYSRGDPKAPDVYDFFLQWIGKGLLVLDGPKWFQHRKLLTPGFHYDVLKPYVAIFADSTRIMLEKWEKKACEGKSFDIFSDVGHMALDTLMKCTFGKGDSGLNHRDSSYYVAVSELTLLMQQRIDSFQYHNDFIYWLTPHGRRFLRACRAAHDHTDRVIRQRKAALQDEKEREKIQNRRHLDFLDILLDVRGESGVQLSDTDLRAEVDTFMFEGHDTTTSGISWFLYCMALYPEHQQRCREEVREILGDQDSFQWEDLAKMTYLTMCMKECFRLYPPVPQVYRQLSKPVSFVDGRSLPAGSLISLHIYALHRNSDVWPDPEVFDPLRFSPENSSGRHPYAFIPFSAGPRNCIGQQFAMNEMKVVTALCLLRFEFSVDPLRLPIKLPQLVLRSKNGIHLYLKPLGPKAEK

As for `COc1ccccc1C` [o-Methylanisole, o-methylanisole], the selectivity ratio on CYP4B1 (setting [1]) amounted to 22; on CYP4B1 (setting [2]), 0.7; at CYP2B6 (setting [1]), 2; at CYP2B6 (setting [2]), 0.52. Moreover, the “Experimental Ratio” value with CYP came to 1.76. The selectivity ratio at 20 min, […] fell in the range of 0.3 to 0.6 with CYP1A2, CYP2B1, CYP2E1; 1.6 to 22 in the data set on CYP2B6, CYP2C9, CYP4B1; 1.2 to 3 in the data set on multiple CYP isoforms.

In the case of `COc1ccc(C)cc1` [p-Methylanisole, p-methylanisole], the “Intermolecular KIE” value at CYP1A1 (CYP1A1 (Table 15)) is recorded as 2.17; on CYP2C8 (CYP2C8 (Table 15)), 3.60; at CYP2E1 (CYP2E1 (Table 15)), 6.53. Besides, the “Intramolecular KIE” value on CYP1A1 (CYP1A1 (Table 15)) was 4.23; at CYP2C8 (CYP2C8 (Table 15)), 3.60; on CYP2E1 (CYP2E1 (Table 15)), 4.02. Further, the “δΔG^†” value worked out at 1.12 kcal/mol at CYP1A1 (CYP1A1, benzylic oxidation vs O-dealkylation); 1.32 kcal/mol at CYP2C8 (CYP2C8, benzylic oxidation vs O-dealkylation); 1.06 kcal/mol at CYP2E1 (CYP2E1, benzylic oxidation vs O-dealkylation). In addition, the “Intramolecular KIE (kH/kD)” value at P450cam came to 4.44.
